The source of these data is patent US9512107B2, “Therapeutically active compositions and their methods of use” (Agios Pharmaceuticals, Inc., priority 2012, dated 2016).

One assay concerns the target T1, IDH2 R140Q (Homo sapiens, UniProt P48735, R140Q).
T1 sequence (P48735 40-452 R140Q): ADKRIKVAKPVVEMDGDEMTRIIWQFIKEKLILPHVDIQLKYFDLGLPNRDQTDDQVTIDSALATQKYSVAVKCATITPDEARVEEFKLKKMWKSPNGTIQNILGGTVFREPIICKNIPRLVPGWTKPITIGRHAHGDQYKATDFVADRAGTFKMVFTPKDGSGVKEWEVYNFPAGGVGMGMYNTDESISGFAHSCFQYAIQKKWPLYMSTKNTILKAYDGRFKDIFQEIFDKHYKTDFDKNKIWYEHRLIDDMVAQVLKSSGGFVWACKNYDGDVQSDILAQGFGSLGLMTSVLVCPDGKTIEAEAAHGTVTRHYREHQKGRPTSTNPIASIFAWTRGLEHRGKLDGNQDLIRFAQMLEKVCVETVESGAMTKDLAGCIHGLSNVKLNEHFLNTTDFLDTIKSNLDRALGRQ
In words: IDH2 R140Q enzymatic assay (cofactor depletion, similar format).
Details: not given
It counts as biochemical. As for the experimental part: [The source words this procedure for another variant and says it was used here with some conditions changed.] Compounds are assayed for IDH2 R172K inhibitory activity through a cofactor depletion assay. […] The reaction is terminated by the addition of a second enzyme, diaphorase, and a corresponding substrate, resazurin. Diaphorase reduces resazurin to the highly fluorescent resorufin with the concomitant oxidation of NADPH to NADP, both halting the IDH2 reaction by depleting the available cofactor pool and facilitating quantitation of the amount of cofactor remaining after a specific time period through quantitative production of an easily detected fluorophore.
The test compound is then incubated for one hour at room temperature with the enzyme; before starting the IDH2 reaction with the addition of 10 μl of substrate mix containing 50 μM NADPH and 6.3 mM α-KG in the buffer described above. After a further one hour of incubation at room temperature, the reaction is halted and the remaining NADPH measured through conversion of resazurin to resorufin by the addition of 25 μl Stop Mix (36 μg/ml diaphorase enzyme and 60 μM resazurin; in buffer).
On to `c1ccc(-c2nc(NCC3CNCCO3)nc(Nc3ccncc3)n2)cc1` (stereo not shown) [Compound 234, N^2-(morpholin-2-ylmethyl)-6-phenyl-N^4-(pyridin-4-yl)-1,3,5-triazine-2,4-diamine], for which the “Enz R140Q” value is “No Fit”.
As to `CC(O)CNc1nc(Nc2ccncc2)nc(-c2ccccc2)n1` (stereo not shown) [Compound 271, 1-(4-phenyl-6-(pyridin-4-ylamino)-1,3,5-triazin-2-ylamino)propan-2-ol], the “Enz R140Q” value is on record as “No Fit”.
Consider `CC(CO)Nc1nc(Nc2ccncc2)nc(-c2ccccc2)n1` (stereo not shown) [Compound 278, 2-(4-phenyl-6-(pyridin-4-ylamino)-1,3,5-triazin-2-ylamino)propan-1-ol], for which the “Enz R140Q” value is recorded as “No Fit”.
`OC1CCCCC1Nc1nc(Nc2ccncc2)nc(-c2ccccc2)n1` (stereo not shown) [Compound 282, 2-(4-phenyl-6-(pyridin-4-ylamino)-1,3,5-triazin-2-ylamino)cyclohexanol]: the “Enz R140Q” value was “No Fit”.
For the compound `O[C@H]1CC[C@@H](Nc2nc(Nc3ccncc3)nc(-c3ccccc3)n2)C1` [Compound 283, (1S,3R)-3-(4-phenyl-6-(pyridin-4-ylamino)-1,3,5-triazin-2-ylamino)cyclopentanol], the “Enz R140Q” value is recorded as “No Fit”.

Still in this assay, the particulars now being: read-out: Enz R140Q.
On to `CC(C)Nc1nc(Nc2ccccc2)nc(-c2ccc(C#N)cc2)n1` [Compound 108], for which the IC50 lay in the range of 100 to 1000 nM.
On to `CN(C)C(=O)Nc1nc(Nc2ccccc2)nc(-c2ccccc2)n1` [Compound 182, 1,1-dimethyl-3-(4-phenyl-6-(phenylamino)-1,3,5-triazin-2-yl)urea], for which the IC50 was 100 to 1000 nM.
For the compound `CCNC(=O)Nc1nc(Nc2ccccc2)nc(-c2ccccc2)n1` [Compound 207, 1-ethyl-3-(4-phenyl-6-(phenylamino)-1,3,5-triazin-2-yl)urea], the IC50 fell in the range of 100 to 1000 nM.
Same read-out and setting: for `c1ccc(-c2nc(NCC3CCCO3)nc(Nc3ccncc3)n2)cc1` (stereo not shown) [Compound 222, 6-phenyl-N^2-(pyridin-4-yl)-N^4-((tetrahydrofuran-2-yl)methyl)-1,3,5-triazine-2,4-diamine] the value was 100 to 1000 nM; for `CC1(Nc2nc(Nc3ccncc3)nc(-c3ccccc3)n2)COC1` [Compound 251, N^2-(3-methyloxetan-3-yl)-6-phenyl-N^4-(pyridin-4-yl)-1,3,5-triazine-2,4-diamine], 100 to 1000 nM; for `OC1CCC(Nc2nc(Nc3ccncc3)nc(-c3ccccc3)n2)CC1` (stereo not shown) [Compound 256, 4-(4-phenyl-6-(pyridin-4-ylamino)-1,3,5-triazin-2-ylamino)cyclohexanol], 1000 to 10000 nM.
The same measure, in the same setting: next, `c1ccc(-c2nc(Nc3ccncc3)nc(NC3CCOCC3)n2)cc1` [Compound 258, 6-phenyl-N^2-(pyridin-4-yl)-N^4-(tetrahydro-2H-pyran-4-yl)-1,3,5-triazine-2,4-diamine]: 1000 to 10000 nM; `c1ccc(-c2nc(NCC3CCO3)nc(Nc3ccncc3)n2)cc1` (stereo not shown) [Compound 264, N^2-(oxetan-2-ylmethyl)-6-phenyl-N^4-(pyridin-4-yl)-1,3,5-triazine-2,4-diamine]: 1000 to 10000 nM.
On the same count and under the same terms, for `CC(C)(O)CNc1nc(Nc2ccncc2)nc(-c2ccccc2)n1` [Compound 265, 2-methyl-1-(4-phenyl-6-(pyridin-4-ylamino)-1,3,5-triazin-2-ylamino)propan-2-ol] the value was 100 to 1000 nM; for `COCC(C)Nc1nc(Nc2ccncc2)nc(-c2ccccc2)n1` (stereo not shown) [Compound 272, N^2-(1-methoxypropan-2-yl)-6-phenyl-N^4-(pyridin-4-yl)-1,3,5-triazine-2,4-diamine], 100 to 1000 nM.
Consider `c1ccc(-c2nc(Nc3ccncc3)nc(NC3CCCOC3)n2)cc1` (stereo not shown) [Compound 273, 6-phenyl-N^2-(pyridin-4-yl)-N^4-(tetrahydro-2H-pyran-3-yl)-1,3,5-triazine-2,4-diamine], for which the IC50 is more than 10000 nM.
For `COC(C)CNc1nc(Nc2ccncc2)nc(-c2ccccc2)n1` (stereo not shown) [Compound 274, N^2-(2-methoxypropyl)-6-phenyl-N^4-(pyridin-4-yl)-1,3,5-triazine-2,4-diamine], the IC50 was more than 10000 nM.
Consider `COCCCNc1nc(Nc2ccncc2)nc(-c2ccccc2)n1` [Compound 275, N^2-(3-methoxypropyl)-6-phenyl-N^4-(pyridin-4-yl)-1,3,5-triazine-2,4-diamine], for which the IC50 lay within 100 to 1000 nM.
Take `O=C1CC(Nc2nc(Nc3ccncc3)nc(-c3ccccc3)n2)C1` [Compound 276, 3-(4-phenyl-6-(pyridin-4-ylamino)-1,3,5-triazin-2-ylamino)cyclobutanone]: the IC50 is 100 to 1000 nM.
For `CC[S+]([O-])c1cccc(Nc2nc(NC(C)C)nc(-c3ccccc3)n2)c1` (stereo not shown) [Compound 277, N^2-(3-(ethylsulfinyl)phenyl)-N^4-isopropyl-6-phenyl-1,3,5-triazine-2,4-diamine], the IC50 is less than 100 nM.
`CC(C)C(CO)Nc1nc(Nc2ccncc2)nc(-c2ccccc2)n1` (stereo not shown) [Compound 279, 3-methyl-2-(4-phenyl-6-(pyridin-4-ylamino)-1,3,5-triazin-2-ylamino)butan-1-ol]: the IC50 was more than 10000 nM.
As to `c1ccc(-c2nc(Nc3ccncc3)nc(NC3CCCCC3)n2)cc1` [Compound 280, N^2-cyclohexyl-6-phenyl-N^4-(pyridin-4-yl)-1,3,5-triazine-2,4-diamine], the IC50 is more than 10000 nM.
Turning to `Cc1ccc(Nc2nc(NC(C)C)nc(-c3ccccc3)n2)cn1` [Compound 281, N^2-isopropyl-N^4-(6-methylpyridin-3-yl)-6-phenyl-1,3,5-triazine-2,4-diamine], the IC50 is less than 100 nM.
Consider `N#CC1(Nc2nc(Nc3ccncc3)nc(-c3ccccc3)n2)CC1` [Compound 285, 1-(4-phenyl-6-(pyridin-4-ylamino)-1,3,5-triazin-2-ylamino)cyclopropanecarbonitrile], for which the IC50 was 1000 to 10000 nM.
Consider `CC(C)(C)C(CO)Nc1nc(Nc2ccncc2)nc(-c2ccccc2)n1` (stereo not shown) [Compound 286, 3,3-dimethyl-2-(4-phenyl-6-(pyridin-4-ylamino)-1,3,5-triazin-2-ylamino)butan-1-ol], for which the IC50 is more than 10000 nM.
Regarding `c1ccc(-c2nc(Nc3ccncc3)nc(NC3CCCC3)n2)cc1` [Compound 287, N^2-cyclopentyl-6-phenyl-N^4-(pyridin-4-yl)-1,3,5-triazine-2,4-diamine], the IC50 fell in the range of 100 to 1000 nM.
For `O=C(Nc1nc(Nc2ccccc2)nc(-c2ccccc2)n1)c1ccn[nH]1` [Compound 347, N-(4-phenyl-6-(phenylamino)-1,3,5-triazin-2-yl)-1H-pyrazole-5-carboxamide], the IC50 is 100 to 1000 nM.
As to `O=C(CO)Nc1nc(Nc2ccccc2)nc(-c2ccccc2)n1` [Compound 348, 2-hydroxy-N-(4-phenyl-6-(phenylamino)-1,3,5-triazin-2-yl)acetamide], the IC50 was more than 10000 nM.
Same read-out and setting: next, `CC#Cc1cccc(-c2nc(Nc3cccc(S(C)(=O)=O)c3)nc(NC(C)C)n2)n1` [Compound 365, N^2-isopropyl-N^4-(3-(methylsulfonyl)phenyl)-6-(6-(prop-1-ynyl)pyridin-2-yl)-1,3,5-triazine-2,4-diamine]: 1000 to 10000 nM.
`O=C(Nc1nc(Nc2ccccc2)nc(-c2ccccc2)n1)C1(O)CC1` [Compound 412, 1-hydroxy-N-(4-phenyl-6-(phenylamino)-1,3,5-triazin-2-yl)cyclopropanecarboxamide]: the IC50 was 1000 to 10000 nM.
Same read-out and setting: for `O=C1CCC(C(=O)Nc2nc(Nc3ccccc3)nc(-c3ccccc3)n2)N1` (stereo not shown) [Compound 413, 5-oxo-N-(4-phenyl-6-(phenylamino)-1,3,5-triazin-2-yl)pyrrolidine-2-carboxamide] the value was more than 10000 nM; for `O=C(Nc1nc(Nc2ccccc2)nc(-c2ccccc2)n1)C1CCOC1` (stereo not shown) [Compound 415, N-(4-phenyl-6-(phenylamino)-1,3,5-triazin-2-yl)tetrahydrofuran-3-carboxamide], more than 10000 nM.

The subject of a further assay is U87MG pLVX-IDH2 R140Q-neo cells. The experiment in a line: U87MG pLVX-IDH2 R140Q-neo cell based assay, 2-HG in media by LC-MS at 48 hours. Particulars: Homo sapiens, U-87 MG. The method, then:
U87MG pLVX-IDH2 R140Q-neo cells are grown in T125 flasks in DMEM containing 10% FBS, 1× penicillin/streptomycin and 500 μg/mL G418. They are harvested by trypsin and seeded into 96 well white bottom plates at a density of 5000 cell/well in 100 μl/well in DMEM with 10% FBS. No cells are plated in columns 1 and 12. Cells are incubated overnight at 37° C. in 5% CO2. The next day compounds are made up at 2× concentration and 100 ul are added to each cell well. The final concentration of DMSO is 0.2% and the DMSO control wells are plated in row G. The plates are then placed in the incubator for 48 hours. At 48 hours, 100 ul of media is removed from each well and analyzed by LC-MS for 2-HG concentrations. The cell plate is placed back in the incubator for another 24 hours. At 72 hours post compound addition, 10 mL/plate of Promega Cell Titer Glo reagent is thawed and mixed. The cell plate is removed from the incubator and allowed to equilibrate to room temperature. Then 100 ul of reagent is added to each well of media. The cell plate is then placed on an orbital shaker for 10 minutes and then allowed to sit at room temperature for 20 minutes. The plate is then read for luminescence with an integration time of 500 ms to determine compound effects on growth inhibition.
`CC(C)(O)CNc1nc(Nc2ccncc2)nc(-c2ccccc2)n1` [Compound 265, 2-methyl-1-(4-phenyl-6-(pyridin-4-ylamino)-1,3,5-triazin-2-ylamino)propan-2-ol] registered an IC50 of 1000 to 10000 nM.
As for `COCC(C)Nc1nc(Nc2ccncc2)nc(-c2ccccc2)n1` (stereo not shown) [Compound 272, N^2-(1-methoxypropan-2-yl)-6-phenyl-N^4-(pyridin-4-yl)-1,3,5-triazine-2,4-diamine], the IC50 lay within 100 to 1000 nM.
The compound `COCCCNc1nc(Nc2ccncc2)nc(-c2ccccc2)n1` [Compound 275, N^2-(3-methoxypropyl)-6-phenyl-N^4-(pyridin-4-yl)-1,3,5-triazine-2,4-diamine] gave an IC50 of 100 to 1000 nM.
Still for that read-out and setting: for `CC[S+]([O-])c1cccc(Nc2nc(NC(C)C)nc(-c3ccccc3)n2)c1` (stereo not shown) [Compound 277, N^2-(3-(ethylsulfinyl)phenyl)-N^4-isopropyl-6-phenyl-1,3,5-triazine-2,4-diamine] the value was 100 to 1000 nM; for `Cc1ccc(Nc2nc(NC(C)C)nc(-c3ccccc3)n2)cn1` [Compound 281, N^2-isopropyl-N^4-(6-methylpyridin-3-yl)-6-phenyl-1,3,5-triazine-2,4-diamine], 100 to 1000 nM.
